Test results: paper PMC6566410, “Novel Diamide-Based Benzenesulfonamides as Selective Carbonic Anhydrase IX Inhibitors Endowed with Antitumor Activity: Synthesis, Biological Evaluation and In Silico Insights” (International Journal of Molecular Sciences, 2019)

Legend:
Assay in all cases: NCI one-dose SRB assay
Assay type in all cases: cell-based
OVCAR-3 = conditions: Homo sapiens, OVCAR-3 (Ovarian Cancer), 1.00E-5 Molar, read-out: Growth Percent
Protocol: (§1) First, all diamide-based benzenesulfonamides herein reported 5a–h were screened for their antitumor activity at one dose (10^−5 M) assay against a panel of sixty cancer cell lines through the National Cancer Institute (NCI) Developmental Therapeutic Program (www.dtp.nci.nih.gov), according to US-NCI protocol. The cell growth and cell viability were evaluated using the sulforhodamine B (SRB) colorimetric assay.
(§2) This assay was carried out according to the protocol of the Drug Evaluation Branch, NCI, Bethesda. The cell growth and cell viability were evaluated using the sulforhodamine B (SRB) colorimetric assay, as reported earlier.

TK-10 = conditions: Homo sapiens, TK-10 (Renal Cancer), 1.00E-5 Molar, read-out: Growth Percent
Protocol: as §1, §2

ACHN = conditions: Homo sapiens, ACHN (Renal Cancer), 1.00E-5 Molar, read-out: Growth Percent
Protocol: as §1, §2

EKVX = conditions: Homo sapiens, EKVX (Non-Small Cell Lung Cancer), 1.00E-5 Molar, read-out: Growth Percent
Protocol: as §1, §2

IGROV1 = conditions: Homo sapiens, IGROV-1, IGROV1 (Ovarian Cancer), 1.00E-5 Molar, read-out: Growth Percent
Protocol: as §1, §2

HOP-92 = conditions: Homo sapiens, HOP-92 (Non-Small Cell Lung Cancer), 1.00E-5 Molar, read-out: Growth Percent
Protocol: as §1, §2

UACC-257 = conditions: Homo sapiens, UACC-257 (Melanoma), 1.00E-5 Molar, read-out: Growth Percent
Protocol: as §1, §2

NCI-H226 = conditions: Homo sapiens, NCI-H226 (Non-Small Cell Lung Cancer), 1.00E-5 Molar, read-out: Growth Percent
Protocol: as §1, §2

A549/ATCC = conditions: Homo sapiens, A549/ATCC (Non-Small Cell Lung Cancer), 1.00E-5 Molar, read-out: Growth Percent
Protocol: as §1, §2

HT29 = conditions: Homo sapiens, HT-29, HT29 (Colon Cancer), 1.00E-5 Molar, read-out: Growth Percent
Protocol: as §1, §2

MDA-MB-435 = conditions: Homo sapiens, MDA-MB-435 (Melanoma), 1.00E-5 Molar, read-out: Growth Percent
Protocol: as §1, §2

SN12C = conditions: Homo sapiens, SN12C (Renal Cancer), 1.00E-5 Molar, read-out: Growth Percent
Protocol: as §1, §2

RXF 393 = conditions: Homo sapiens, RXF 393 (Renal Cancer), 1.00E-5 Molar, read-out: Growth Percent
Protocol: as §1, §2

UACC-62 = conditions: Homo sapiens, UACC-62 (Melanoma), 1.00E-5 Molar, read-out: Growth Percent
Protocol: as §1, §2

CAKI-1 = conditions: Homo sapiens, CAKI-1 (Renal Cancer), 1.00E-5 Molar, read-out: Growth Percent
Protocol: as §1, §2

786-0 = conditions: Homo sapiens, 786-0 (Renal Cancer), 1.00E-5 Molar, read-out: Growth Percent
Protocol: as §1, §2

MDA-MB-231/ATCC = conditions: Homo sapiens, MDA-MB-231/ATCC (Breast Cancer), 1.00E-5 Molar, read-out: Growth Percent
Protocol: as §1, §2

HL-60(TB) = conditions: Homo sapiens, HL-60(TB) (Leukemia), 1.00E-5 Molar, read-out: Growth Percent
Protocol: as §1, §2

HCT-15 = conditions: Homo sapiens, HCT-15 (Colon Cancer), 1.00E-5 Molar, read-out: Growth Percent
Protocol: as §1, §2

SF-539 = conditions: Homo sapiens, SF-539 (CNS Cancer), 1.00E-5 Molar, read-out: Growth Percent
Protocol: as §1, §2

HS 578T = conditions: Homo sapiens, HS 578T (Breast Cancer), 1.00E-5 Molar, read-out: Growth Percent
Protocol: as §1, §2

RPMI-8226 = conditions: Homo sapiens, RPMI-8226 (Leukemia), 1.00E-5 Molar, read-out: Growth Percent
Protocol: as §1, §2

MALME-3M = conditions: Homo sapiens, MALME-3M (Melanoma), 1.00E-5 Molar, read-out: Growth Percent
Protocol: as §1, §2

HCT-116 = conditions: Homo sapiens, HCT-116 (Colon Cancer), 1.00E-5 Molar, read-out: Growth Percent
Protocol: as §1, §2

PC-3 = conditions: Homo sapiens, PC-3 (Prostate Cancer), 1.00E-5 Molar, read-out: Growth Percent
Protocol: as §1, §2

M14 = conditions: Homo sapiens, M14 (Melanoma), 1.00E-5 Molar, read-out: Growth Percent
Protocol: as §1, §2

CCRF-CEM = conditions: Homo sapiens, CCRF-CEM (Leukemia), 1.00E-5 Molar, read-out: Growth Percent
Protocol: as §1, §2

OVCAR-8 = conditions: Homo sapiens, OVCAR-8 (Ovarian Cancer), 1.00E-5 Molar, read-out: Growth Percent
Protocol: as §1, §2

NCI-H322M = conditions: Homo sapiens, NCI-H322M (Non-Small Cell Lung Cancer), 1.00E-5 Molar, read-out: Growth Percent
Protocol: as §1, §2

NCI-H460 = conditions: Homo sapiens, NCI-H460 (Non-Small Cell Lung Cancer), 1.00E-5 Molar, read-out: Growth Percent
Protocol: as §1, §2

| Structure (SMILES) | activity at 10 µM (OVCAR-3) | activity at 10 µM (TK-10) | activity at 10 µM (ACHN) | activity at 10 µM (EKVX) | activity at 10 µM (IGROV1) | activity at 10 µM (HOP-92) | activity at 10 µM (UACC-257) | activity at 10 µM (NCI-H226) | activity at 10 µM (A549/ATCC) | activity at 10 µM (HT29) | activity at 10 µM (MDA-MB-435) | activity at 10 µM (SN12C) | activity at 10 µM (RXF 393) | activity at 10 µM (UACC-62) | activity at 10 µM (CAKI-1) | activity at 10 µM (786-0) | activity at 10 µM (MDA-MB-231/ATCC) | activity at 10 µM (HL-60(TB)) | activity at 10 µM (HCT-15) | activity at 10 µM (SF-539) | also measured |
| --- | --- | --- | --- | --- | --- | --- | --- | --- | --- | --- | --- | --- | --- | --- | --- | --- | --- | --- | --- | --- | --- |
| NS(=O)(=O)c1ccc(NC(=O)C(=Cc2ccc(Cl)cc2)NC(=O)c2ccccc2)cc1 [Compound 5a, N-(1-(4-Chlorophenyl)-3-oxo-3-((4-sulfamoylphenyl)amino)prop-1-en-2-yl)benzamide] | 104% | 96.6% | 100% | 99.5% | 90.9% | 98.8% | 103% | 92.9% | 101% | 106% | 98.7% | 104% | 103% | 96.2% | 92.5% | 95.9% | 105% | 101% | 106% | 98.8% | activity at 10 µM (HS 578T): 101%; activity at 10 µM (RPMI-8226): 109%; activity at 10 µM (MALME-3M): 96.3%; activity at 10 µM (HCT-116): 93.9%; activity at 10 µM (PC-3): 105%; activity at 10 µM (M14): 102%; activity at 10 µM (CCRF-CEM): 107%; activity at 10 µM (OVCAR-8): 97.6%; activity at 10 µM (NCI-H322M): 108%; activity at 10 µM (NCI-H460): 106% |
| NS(=O)(=O)c1ccc(NC(=O)C(=Cc2ccc(Cl)cc2Cl)NC(=O)c2ccccc2)cc1 [Compound 5b, N-(1-(2,4-Dichlorophenyl)-3-oxo-3-((4-sulfamoylphenyl)amino)prop-1-en-2-yl)benzamide] | 113% | 104% | 98.2% | 99.6% | 74.9% | 87% | 102% | 103% | 105% | 103% | 97.7% | 94.7% | 96% | 75% | 88.6% | 104% | 105% | 84.8% | 110% | 95.7% | activity at 10 µM (HS 578T): 89.5%; activity at 10 µM (RPMI-8226): 92.2%; activity at 10 µM (MALME-3M): 93.2%; activity at 10 µM (HCT-116): 97.3%; activity at 10 µM (PC-3): 89.4%; activity at 10 µM (M14): 102%; activity at 10 µM (CCRF-CEM): 105%; activity at 10 µM (OVCAR-8): 101%; activity at 10 µM (NCI-H322M): 102%; activity at 10 µM (NCI-H460): 105% |
| NS(=O)(=O)c1ccc(NC(=O)C(=Cc2ccc(Br)cc2)NC(=O)c2ccccc2)cc1 [Compound 5c, N-(1-(4-Bromophenyl)-3-oxo-3-((4-sulfamoylphenyl)amino)prop-1-en-2-yl)benzamide] | 103% | 102% | 100% | 102% | 90.2% | 94% | 105% | 97.2% | 102% | 89.1% | 95% | 99.4% | 95.8% | 88.1% | 91% | 96% | 105% | 96.9% | 92.5% | 92.8% | activity at 10 µM (HS 578T): 93.9%; activity at 10 µM (RPMI-8226): 97.2%; activity at 10 µM (MALME-3M): 92.2%; activity at 10 µM (HCT-116): 92%; activity at 10 µM (PC-3): 92.7%; activity at 10 µM (M14): 109%; activity at 10 µM (CCRF-CEM): 99.4%; activity at 10 µM (OVCAR-8): 102%; activity at 10 µM (NCI-H322M): 100%; activity at 10 µM (NCI-H460): 107% |
| Cc1ccc(C=C(NC(=O)c2ccccc2)C(=O)Nc2ccc(S(N)(=O)=O)cc2)cc1 [Compound 5d, N-(3-Oxo-3-((4-sulfamoylphenyl)amino)-1-(p-tolyl)prop-1-en-2-yl)benzamide] | 111% | 104% | 108% | 108% | 99.2% | 109% | 105% | 105% | 95.4% | 103% | 92.9% | 94.8% | 116% | 99.4% | 93.9% | 100% | 104% | 88.5% | 90.6% | 102% | activity at 10 µM (HS 578T): 117%; activity at 10 µM (RPMI-8226): 107%; activity at 10 µM (MALME-3M): 99%; activity at 10 µM (HCT-116): 99.3%; activity at 10 µM (PC-3): 96.5%; activity at 10 µM (M14): 110%; activity at 10 µM (CCRF-CEM): 102%; activity at 10 µM (OVCAR-8): 98.3%; activity at 10 µM (NCI-H322M): 108%; activity at 10 µM (NCI-H460): 108% |
| COc1ccc(C=C(NC(=O)c2ccccc2)C(=O)Nc2ccc(S(N)(=O)=O)cc2)cc1 [Compound 5e, N-(1-(4-Methoxyphenyl)-3-oxo-3-((4-sulfamoylphenyl)amino)prop-1-en-2-yl)benzamide] | 111% | 107% | 102% | 105% | 94.5% | 109% | 102% | 105% | 103% | 100% | 97.5% | 97.1% | 110% | 92.7% | 98.1% | 105% | 110% | 99.2% | 104% | 96.8% | activity at 10 µM (HS 578T): 102%; activity at 10 µM (RPMI-8226): 107%; activity at 10 µM (MALME-3M): 109%; activity at 10 µM (HCT-116): 105%; activity at 10 µM (PC-3): 98.9%; activity at 10 µM (M14): 107%; activity at 10 µM (CCRF-CEM): 106%; activity at 10 µM (OVCAR-8): 99.4%; activity at 10 µM (NCI-H322M): 110%; activity at 10 µM (NCI-H460): 105% |
